The record followed here is article PMC9841589, “Identification of 2-Aminoacyl-1,3,4-thiadiazoles as Prostaglandin E2 and Leukotriene Biosynthesis Inhibitors” (ACS Medicinal Chemistry Letters, 2022).

Like-named read-outs stand apart in the source and are kept apart here.

By IC50 is commonly meant the concentration that inhibits the measured activity by half.

For this assay, the system named is 5-LO product formation in intact neutrophils (PMNL). The assay can be described thus: Determination of 5-LO products in neutrophils. Particulars: Homo sapiens. The class given is cell-based. On the procedure:
Figure S3. Concentration-response curves for inhibition of 5-LO product formation in neutrophils.
Cells were pre-incubated with compounds 3, 6, 7 and 9 or 0.1% DMSO over 10 min at 37 °C, and then stimuli were added. On the left (A,C, E, G), cells were stimulated with 2.5 µM Ca 2+-ionophore A23187 over 10 min; on the right (B, D, F, H), cells were stimulated with 2.5 µM Ca 2+-ionophore A23187 plus 20 µM arachidonic acid over 10 min. Data are expressed as percentage of uninhibited control (100%), means, S.E.M., n = 3. […]
Determination of 5-LO products in neutrophils
Freshly isolated neutrophils were resuspended in PBS buffer containing 0.1% glucose and 1 mM CaCl2 to a final cell density of 5 × 10 6. Cells were pre-incubated with compounds 3, 6, 7, 9 or DMSO vehicle (0.1%) at 37 °C for 10 min. Then, 2.5 µM Ca 2+-ionophore A23187 (with or without supplementation of 20 µM of arachidonic acid) was added as stimulus, and cells were left at 37 °C for 10 min. 1 mL of ice-cold methanol was used to stop the reaction of 5-LO product formation on ice, and 530 µL of PBS plus HCl and PGB 1 (as internal standard) were added. Finally, cells were centrifuged (2000 x g) over 10 min at room temperature, and 5-LO products were extracted by solid-phase extraction, and they were quantified by RP-HPLC as described above. […]

The mark [1] stands for this setting: 2.5 µM A23187, n = 3, read-out: 5-LO product formation on PMNL, IC50 value ± SEM, stimulus: A23187.
Setting [2] is: 2.5 µM A23187 plus 20 μM arachidonic acid, n = 3, read-out: 5-LO product formation on PMNL, IC50 value ± SEM, stimulus: A23187 + AA.

For `O=C(Nc1nnc(-c2ccc(-c3cccc(O)c3)cc2)s1)c1ccccc1Br` [compound 3], the IC50 runs as follows: under setting [1], 4.9 ± 0.5 µM; under setting [2], 5.2 ± 1.2 µM.

Regarding `Cc1cc(C(=O)Nc2nnc(-c3ccc(-c4ccccc4N)cc3)s2)cc(Cl)n1` [compound 6], the concentration for half-maximal inhibition (IC50) turned out to be 4.8 ± 1.9 µM under setting [1] and 6.9 ± 2.2 µM under setting [2].

Turning to `Nc1ccccc1-c1ccc(-c2nnc(NC(=O)c3ccccc3Br)s2)cc1` [compound 7], the half-maximal inhibitory concentration (IC50) came out at 4.2 ± 1.4 µM under setting [1] and 2.3 ± 0.8 µM under setting [2].

Turning to `Nc1ccccc1-c1ccc(-c2nnc(NC(=O)c3c(Cl)ccnc3Cl)s2)cc1` [compound 9], the IC50 stood at 2.1 ± 0.3 µM under setting [1] and 4.2 ± 0.3 µM under setting [2].
